In this series the target is HBV. Conditions: ASO.

Here are results for 30 substances from the OligoGym collection.

Where “and” joins values, the source holds several entries; their conditions need not be identical. Equal entries are not always repeated. HELM strings list units from the 5' end as sugar, base in round brackets, then linkage (d deoxyribose, r ribose, m 2'-O-methyl, p phosphodiester). Methylation of C is not given here. [moe] = 2'-O-(2-methoxyethyl) (MOE); [cEt] = constrained ethyl (cEt); [sp] = phosphorothioate linkage

On to “RNA1{[moe](A)[sp].[moe](C)[sp].[moe](T)[sp].[moe](G)[sp].d(G)[sp].d(A)[sp].d(G)[sp].d(C)[sp].d(C)[sp].d(A)[sp].d(C)[sp].d(C)[sp].d(A)[sp].[moe](G)[sp].[moe](C)[sp].[moe](A)[sp].[moe](G)}$$$$V2.0”, for which, where the note is “HepG2, 0.07 µM”, the target mRNA inhibition is 40% and 41%.

Regarding “RNA1{[moe](A)[sp].[cEt](A)[sp].d(G)[sp].d(T)[sp].d(C)[sp].d(C)[sp].d(A)[sp].d(C)[sp].d(C)[sp].d(A)[sp].d(C)[sp].d(G)[sp].[cEt](A)[sp].[moe](G)[sp].[cEt](T)[sp].[moe](C)}$$$$V2.0”, the target mRNA inhibition (HepG2, 0.07 µM) is 43% and 40%. Same read-out and setting: the figure for “RNA1{[moe](C)[sp].[moe](C)[sp].[moe](A)[sp].d(C)[sp].d(T)[sp].d(G)[sp].d(A)[sp].d(A)[sp].d(C)[sp].d(A)[sp].d(A)[sp].d(A)[sp].[moe](T)[sp].[moe](G)[sp].[moe](G)[sp].[moe](C)}$$$$V2.0” is 69%.

For the substance “RNA1{[moe](G)[sp].[cEt](A)[sp].d(G)[sp].d(G)[sp].d(T)[sp].d(G)[sp].d(A)[sp].d(A)[sp].d(G)[sp].d(C)[sp].d(G)[sp].d(A)[sp].[cEt](A)[sp].[moe](G)[sp].[cEt](T)[sp].[moe](G)}$$$$V2.0”, the target mRNA inhibition runs as follows: (HepG2, 0.0092593 µM) 17%; (HepG2, 0.0277778 µM) 40%; (HepG2, 0.07 µM) 75% and 82%; (HepG2, 0.0833333 µM) 65%; (HepG2, 0.25 µM) 79%.

For the substance “RNA1{[moe](G)[sp].[moe](A)[sp].[moe](G)[sp].d(A)[sp].d(G)[sp].d(A)[sp].d(A)[sp].d(G)[sp].d(T)[sp].d(C)[sp].d(C)[sp].d(A)[sp].d(C)[sp].[cEt](C)[sp].[cEt](A)[sp].[cEt](C)}$$$$V2.0”, where the note is “HepG2, 0.07 µM”, the target mRNA inhibition was 38% and 23%.

As for “RNA1{[moe](C)[sp].[moe](G)[sp].[moe](C)[sp].[moe](A)[sp].d(G)[sp].d(T)[sp].d(A)[sp].d(T)[sp].d(G)[sp].d(G)[sp].d(A)[sp].d(T)[sp].d(C)[sp].[moe](G)[sp].[moe](G)[sp].[moe](C)[sp].[moe](A)}$$$$V2.0”, the target mRNA inhibition (HepG2, 0.07 µM) is 81% and 67%. For the substance “RNA1{[moe](G)[sp].[cEt](G)[sp].d(T)[sp].d(G)[sp].d(A)[sp].d(A)[sp].d(G)[sp].d(C)[sp].d(G)[sp].d(A)[sp].d(A)[sp].d(G)[sp].[cEt](T)[sp].[moe](G)[sp].[cEt](C)[sp].[moe](A)}$$$$V2.0”, the target mRNA inhibition by setting is: (HepG2, 0.0092593 µM) 22%; (HepG2, 0.0277778 µM) 51%; (HepG2, 0.07 µM) 80% and 81%; (HepG2, 0.0833333 µM) 82%; (HepG2, 0.25 µM) 88%. Consider “RNA1{[moe](A)[sp].[cEt](A)[sp].d(T)[sp].d(T)[sp].d(T)[sp].d(A)[sp].d(T)[sp].d(G)[sp].d(C)[sp].d(C)[sp].d(T)[sp].d(A)[sp].[cEt](C)[sp].[moe](A)[sp].[cEt](G)[sp].[moe](C)}$$$$V2.0”, for which the target mRNA inhibition (HepG2, 0.07 µM) is 60% and 59%. As for “RNA1{[moe](T)[sp].[moe](G)[sp].[moe](G)[sp].[moe](A)[sp].[moe](G)[sp].d(C)[sp].d(C)[sp].d(A)[sp].d(C)[sp].d(C)[sp].d(A)[sp].d(G)[sp].d(C)[sp].d(A)[sp].[moe](G)[sp].[moe](G)}$$$$V2.0”, where the note is “HepG2, 0.07 µM”, the target mRNA inhibition is 33% and 32%. On the same count and under the same terms, under “RNA1{[moe](G)[sp].[moe](A)[sp].[moe](A)[sp].d(C)[sp].d(C)[sp].d(A)[sp].d(C)[sp].d(T)[sp].d(G)[sp].d(A)[sp].d(A)[sp].d(C)[sp].d(A)[sp].[cEt](A)[sp].[cEt](A)[sp].[cEt](T)}$$$$V2.0” stands 30% and 48%; under “RNA1{[moe](T)[sp].[moe](G)[sp].d(A)[sp].d(G)[sp].d(G)[sp].d(C)[sp].d(A)[sp].d(T)[sp].d(A)[sp].d(G)[sp].d(C)[sp].[moe](A)[sp].[moe](G)[sp].[moe](C)[sp].[moe](A)[sp].[moe](G)}$$$$V2.0”, 59% and 52%. Take “RNA1{[moe](T)[sp].[moe](G)[sp].[moe](A)[sp].d(G)[sp].d(G)[sp].d(C)[sp].d(A)[sp].d(T)[sp].d(A)[sp].d(G)[sp].d(C)[sp].d(A)[sp].[moe](G)[sp].[moe](C)[sp].[moe](A)[sp].[moe](G)[sp].[moe](G)}$$$$V2.0”: the target mRNA inhibition (HepG2, 0.07 µM) was 70% and 56%. On the same count and under the same terms, under “RNA1{[moe](T)[sp].[cEt](A)[sp].[cEt](G)[sp].d(G)[sp].d(C)[sp].d(A)[sp].d(G)[sp].d(A)[sp].d(G)[sp].d(G)[sp].d(T)[sp].d(G)[sp].d(A)[sp].[cEt](A)[sp].[cEt](A)[sp].[moe](A)}$$$$V2.0” stands 31% and 28%; under “RNA1{[moe](C)[sp].[moe](G)[sp].[moe](A)[sp].[moe](A)[sp].d(C)[sp].d(C)[sp].d(A)[sp].d(C)[sp].d(T)[sp].d(G)[sp].d(A)[sp].d(A)[sp].d(C)[sp].[moe](A)[sp].[moe](A)[sp].[moe](A)}$$$$V2.0”, 44% and 32%. For the substance “RNA1{[moe](C)[sp].[moe](A)[sp].[moe](G)[sp].d(A)[sp].d(G)[sp].d(G)[sp].d(T)[sp].d(G)[sp].d(A)[sp].d(A)[sp].d(G)[sp].d(C)[sp].[moe](G)[sp].[moe](A)[sp].[moe](A)[sp].[moe](G)[sp].[moe](T)}$$$$V2.0”, under “HepG2, 0.07 µM”, the target mRNA inhibition is 63% and 50%. With “RNA1{[moe](A)[sp].[moe](C)[sp].[moe](C)[sp].d(A)[sp].d(C)[sp].d(T)[sp].d(G)[sp].d(A)[sp].d(A)[sp].d(C)[sp].d(A)[sp].d(A)[sp].d(A)[sp].[cEt](T)[sp].[cEt](G)[sp].[cEt](G)}$$$$V2.0”, the target mRNA inhibition (HepG2, 0.07 µM) is 65% and 71%. The same measure, in the same setting: under “RNA1{[moe](G)[sp].[moe](C)[sp].[moe](A)[sp].[moe](C)[sp].d(T)[sp].d(A)[sp].d(G)[sp].d(T)[sp].d(A)[sp].d(A)[sp].d(A)[sp].d(C)[sp].d(T)[sp].[moe](G)[sp].[moe](A)[sp].[moe](G)[sp].[moe](C)}$$$$V2.0” stands 55% and 47%. Still for that read-out and setting: under “RNA1{[moe](A)[sp].[moe](G)[sp].[moe](A)[sp].d(G)[sp].d(A)[sp].d(A)[sp].d(G)[sp].d(T)[sp].d(C)[sp].d(C)[sp].d(A)[sp].d(C)[sp].[moe](C)[sp].[moe](A)[sp].[moe](C)[sp].[moe](G)[sp].[moe](A)}$$$$V2.0” stands 59% and 56%; under “RNA1{[moe](C)[sp].[moe](A)[sp].[moe](C)[sp].d(T)[sp].d(A)[sp].d(G)[sp].d(T)[sp].d(A)[sp].d(A)[sp].d(A)[sp].d(C)[sp].d(T)[sp].[moe](G)[sp].[moe](A)[sp].[moe](G)[sp].[moe](C)}$$$$V2.0”, 14% and 4%. Turning to “RNA1{[moe](G)[sp].[moe](G)[sp].[moe](C)[sp].d(A)[sp].d(T)[sp].d(A)[sp].d(G)[sp].d(C)[sp].d(A)[sp].d(G)[sp].d(C)[sp].d(A)[sp].[moe](G)[sp].[moe](G)[sp].[moe](A)[sp].[moe](T)}$$$$V2.0”, the target mRNA inhibition (HepG2, 0.07 µM) is 54% and 57%.

Consider “RNA1{[moe](G)[sp].[moe](A)[sp].[moe](G)[sp].d(G)[sp].d(T)[sp].d(G)[sp].d(A)[sp].d(A)[sp].d(G)[sp].d(C)[sp].d(G)[sp].d(A)[sp].d(A)[sp].[cEt](G)[sp].[cEt](T)[sp].[cEt](G)}$$$$V2.0”, for which, where the note is “HepG2, 0.07 µM”, the target mRNA inhibition was 67% and 57%. Same read-out and setting: under “RNA1{[moe](A)[sp].[moe](G)[sp].[moe](A)[sp].d(T)[sp].d(G)[sp].d(A)[sp].d(G)[sp].d(G)[sp].d(C)[sp].d(A)[sp].d(T)[sp].d(A)[sp].[moe](G)[sp].[moe](C)[sp].[moe](A)[sp].[moe](G)[sp].[moe](C)}$$$$V2.0” stands 69% and 63%; under “RNA1{[moe](A)[sp].[moe](A)[sp].[moe](T)[sp].[moe](T)[sp].d(T)[sp].d(A)[sp].d(T)[sp].d(G)[sp].d(C)[sp].d(C)[sp].d(T)[sp].d(A)[sp].d(C)[sp].[moe](A)[sp].[moe](G)[sp].[moe](C)}$$$$V2.0”, 38% and 34%. “RNA1{[moe](G)[sp].[moe](A)[sp].[moe](G)[sp].[moe](G)[sp].d(C)[sp].d(A)[sp].d(T)[sp].d(A)[sp].d(G)[sp].d(C)[sp].d(A)[sp].d(G)[sp].d(C)[sp].[moe](A)[sp].[moe](G)[sp].[moe](G)[sp].[moe](A)}$$$$V2.0” displayed a target mRNA inhibition (HepG2, 0.07 µM) of 35%. Same read-out and setting: under “RNA1{[moe](A)[sp].[cEt](C)[sp].d(G)[sp].d(T)[sp].d(G)[sp].d(C)[sp].d(A)[sp].d(G)[sp].d(A)[sp].d(G)[sp].d(G)[sp].d(T)[sp].[cEt](G)[sp].[moe](A)[sp].[cEt](A)[sp].[moe](G)}$$$$V2.0” stands 71% and 68%.

With “RNA1{[moe](A)[sp].[moe](T)[sp].[moe](T)[sp].[moe](T)[sp].[moe](A)[sp].d(T)[sp].d(G)[sp].d(C)[sp].d(C)[sp].d(T)[sp].d(A)[sp].d(C)[sp].d(A)[sp].d(G)[sp].[moe](C)[sp].[moe](C)[sp].[moe](T)}$$$$V2.0”, for the setting “HepG2, 0.07 µM”, the target mRNA inhibition is 70% and 48%. Still for that read-out and setting: the figure for “RNA1{[moe](G)[sp].[moe](G)[sp].[moe](T)[sp].d(G)[sp].d(A)[sp].d(A)[sp].d(G)[sp].d(C)[sp].d(G)[sp].d(A)[sp].d(A)[sp].d(G)[sp].[moe](T)[sp].[moe](G)[sp].[moe](C)[sp].[moe](A)[sp].[moe](C)}$$$$V2.0” is 78% and 64%; for “RNA1{[moe](G)[sp].[cEt](G)[sp].[cEt](C)[sp].d(A)[sp].d(G)[sp].d(A)[sp].d(G)[sp].d(G)[sp].d(T)[sp].d(G)[sp].d(A)[sp].d(A)[sp].d(A)[sp].[cEt](A)[sp].[cEt](A)[sp].[moe](G)}$$$$V2.0” it is 50% and 49%; for “RNA1{[moe](T)[sp].[moe](G)[sp].[moe](A)[sp].d(A)[sp].d(G)[sp].d(C)[sp].d(G)[sp].d(A)[sp].d(A)[sp].d(G)[sp].d(T)[sp].d(G)[sp].d(C)[sp].[cEt](A)[sp].[cEt](C)[sp].[cEt](A)}$$$$V2.0” it is 67% and 70%. On the same count and under the same terms, the figure for “RNA1{[moe](G)[sp].[cEt](A)[sp].[cEt](A)[sp].d(C)[sp].d(A)[sp].d(A)[sp].d(A)[sp].d(T)[sp].d(G)[sp].d(G)[sp].d(C)[sp].d(A)[sp].d(C)[sp].[cEt](T)[sp].[cEt](A)[sp].[moe](G)}$$$$V2.0” is 72% and 61%.
